This note sets out measurements from ChEMBL document CHEMBL5053541, “Andrographolide derivative as antagonist of vitamin D receptor to induce lipidation of microtubule associate protein 1 light chain 3 (LC3)” (Bioorg Med Chem, 2021).

Activity calls are given as the source filed them. The rule behind the calls is not given here.

Test [1] deals with N2a. The test is described as follows: Induction of autophagy in MPP+-induced mouse N2a cells assessed as increase in LC3-II expression at 10 uM measured after 6 hrs by western blot analysis. The format is functional, cell-based.
Test [2] has as its system SH-SY5Y. The test is described as follows: Neuroprotective activity against SNCA-induced neurotoxicity in human SH-SY5Y cells transfected with adenovirus expressing […] SNCA assessed as reduction in […] SNCA expression at 100 nM measured after 6 hrs by western blot analysis. The class given is functional, cell-based.
In test [3] the test system is N2a. The test is described as follows: Effect on SNCA oligomerization in mouse N2a cells transfected with Syn-luc1 and Syn-luc2 plasmids assessed as reduction in SNCA self-oligomerization by measuring luciferase activity at 100 nM measured after 6 hrs by bioluminescent protein-fragment complementation assay. The class given is functional, cell-based.
Test [4] relates to N2a. The test is described as follows: Induction of autophagy in MPP+-induced mouse N2a cells infected with pAde-LC3-EGFP- mCherry assessed as formation of mCherry foci by measuring increased in red fluorescence at 500 nM measured after 4 hrs by Hoechst staining based confocal microscope analysis. The class given is functional, cell-based.
The target in test [5] is T1, Vitamin D3 receptor (Homo sapiens) (UniProt P11473).
T1 sequence (whole entry): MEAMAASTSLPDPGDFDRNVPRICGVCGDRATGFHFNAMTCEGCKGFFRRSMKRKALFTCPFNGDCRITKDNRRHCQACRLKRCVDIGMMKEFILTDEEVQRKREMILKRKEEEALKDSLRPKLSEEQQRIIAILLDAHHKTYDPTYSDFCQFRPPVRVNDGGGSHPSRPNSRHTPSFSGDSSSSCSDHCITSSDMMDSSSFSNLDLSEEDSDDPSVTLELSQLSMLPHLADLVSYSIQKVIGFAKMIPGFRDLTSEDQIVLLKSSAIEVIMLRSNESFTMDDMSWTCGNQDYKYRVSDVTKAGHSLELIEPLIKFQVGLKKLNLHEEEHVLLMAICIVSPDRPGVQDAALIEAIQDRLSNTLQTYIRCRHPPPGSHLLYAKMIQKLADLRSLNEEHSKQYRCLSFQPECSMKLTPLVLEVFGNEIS
As to the kind of experiment: Antagonist activity at VDR in human HeLa cells assessed as increase in ratio of LC3-II to LC-I at 100 nM in presence or absence of calcitriol measured after 4 hrs by western blot analysis. The class given is cell-based.

Test [6] has as its target T1, Vitamin D3 receptor (Homo sapiens). As to the kind of experiment: Antagonist activity at VDR in human HeLa cells assessed as decrease in p62 expression at 100 nM in presence or absence of calcitriol measured after 4 hrs by western blot analysis. The settings on record: filed as antagonist. The format is cell-based.
Test [7] has the same target. The test is described as follows: Antagonist activity at VDR in human HeLa cells assessed as decrease in mTOR phosphorylation at Ser2448 residue at 100 nM in presence or absence of calcitriol measured after 4 hrs by western blot analysis. The format is cell-based.
For test [8], the system named is SH-SY5Y. The test is described as follows: Neuroprotective activity against SNCA-induced neurotoxicity in human SH-SY5Y cells transfected with adenovirus expressing […] SNCA assessed as inhibition of mTOR activation at 100 nM measured after 6 hrs by western blot analysis. The class given is functional, cell-based.
In test [9] the test system is SH-SY5Y. As to the kind of experiment: Neuroprotective activity against SNCA-induced neurotoxicity in human SH-SY5Y cells transfected with adenovirus expressing […] SNCA assessed as inhibition of p62 expression at 100 nM measured after 6 hrs by western blot analysis. The format is functional, cell-based.
Test [10] deals with SH-SY5Y. The test is described as follows: Neuroprotective activity against A53T SNCA-induced cytotoxicity in human SH-SY5Y cells assessed as decrease in A53T SNCA induced LDH release at 100 nM by LDH assay. The format is functional, cell-based.

As for `CCC(=O)N1CCN(c2ccc(-n3c(=O)ccc4cnc5ccc(-c6cnc7ccccc7c6)cc5c43)cc2C(F)(F)F)CC1`, the result (with N2a [1]; with SH-SY5Y [2]; in the test with N2a [3]; in the test with N2a [4]; in test [6]; with SH-SY5Y [10]) was Active. The outcome in test [5] and in test [7] was inactive. Besides, the inhibition entry in the test with SH-SY5Y [8] and in the test on SH-SY5Y [9] was “Active” each time.
